# Source: PubChem BioAssay AID2060901 (Molecular Pharmacology Branch, DTP, NCI, 2025)
# Test system: 422866-222-R5-J1-PDC complex spheroids viability
# Assay: Anticancer human tumor 422866-222-R5-J1-PDC patient-derived pancreatic adenocarcinoma cell line growth inhibition [RAS]
# Details: for IC50: curve of first compound; for viability, T/C: stronger effect = lower value
# Outline: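 Multi-cell-type spheroids: tumor cells plus HUVEC endothelial cells and mesenchymal stem cells. RAS-pathway inhibitors were combined with targeted agents, each dosed in half-log steps down from clinical Cmax, or from 10 microM when Cmax was unknown.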
# [1] = second compound 0.000949 µM, first compound 0.0316 µM
# [2] = second compound 0.000949 µM, first compound 0.1 µM
# [3] = second compound 0.000949 µM, first compound 0.316 µM
# [4] = second compound 0.000949 µM, first compound 1 µM
# [5] = second compound 0.003 µM, first compound 0.0316 µM
# [6] = second compound 0.003 µM, first compound 0.1 µM
# [7] = second compound 0.003 µM, first compound 0.316 µM
# [8] = second compound 0.003 µM, first compound 1 µM
# [9] = second compound 0.00949 µM, first compound 0.0316 µM
# [10] = second compound 0.00949 µM, first compound 0.1 µM
# [11] = second compound 0.00949 µM, first compound 0.316 µM
# [12] = second compound 0.00949 µM, first compound 1 µM
# [13] = second compound 0.03 µM, first compound 0.0316 µM
# [14] = second compound 0.03 µM, first compound 0.1 µM
# [15] = second compound 0.03 µM, first compound 0.316 µM
# [16] = second compound 0.03 µM, first compound 1 µM
# [17] = second compound 0.0949 µM, first compound 0.0316 µM
# [18] = second compound 0.0949 µM, first compound 0.1 µM
# [19] = second compound 0.0949 µM, first compound 0.316 µM
# [20] = second compound 0.0949 µM, first compound 1 µM
# [21] = second compound 0.3 µM, first compound 0.0316 µM
# [22] = second compound 0.3 µM, first compound 0.1 µM
# [23] = second compound 0.3 µM, first compound 0.316 µM
# [24] = second compound 0.3 µM, first compound 1 µM
# 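Further: spheroids exposed to compounds for 7 days.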
# 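Wherever viability, T/C is given: 100% = DMSO vehicle control viability.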
smiles,measurement,setting,value
C=CC(=O)Nc1cc(Nc2nccc(-c3cn(C)c4ccccc34)n2)c(OC)cc1N(C)CCN(C)C + CCn1c(-c2cc(N3CCN(C)CC3)cnc2C(C)OC)c2c3cc(ccc31)-c1csc(n1)CC(NC(=O)C1CC1C)C(=O)N1CCCC(N1)C(=O)OCC(C)(C)C2,IC50,second compound 0.000949 µM,< 3.16 nM
same,IC50,second compound 0.003 µM,< 3.16 nM
same,IC50,second compound 0.00949 µM,< 3.16 nM
same,IC50,second compound 0.03 µM,< 3.16 nM
same,IC50,second compound 0.0949 µM,< 3.16 nM
same,IC50,second compound 0.3 µM,< 3.16 nM
same,"viability, T/C","second compound 0.000949 µM, first compound 0.00316 µM",32.2%
same,"viability, T/C","second compound 0.000949 µM, first compound 0.01 µM",25.2%
same,"viability, T/C",[1],26.4%
same,"viability, T/C",[2],21.6%
same,"viability, T/C",[3],23.1%
same,"viability, T/C",[4],24.7%
same,"viability, T/C","second compound 0.003 µM, first compound 0.00316 µM",26.1%
same,"viability, T/C","second compound 0.003 µM, first compound 0.01 µM",20.3%
same,"viability, T/C",[5],20.2%
same,"viability, T/C",[6],17.2%
same,"viability, T/C",[7],16.4%
same,"viability, T/C",[8],18.9%
same,"viability, T/C","second compound 0.00949 µM, first compound 0.00316 µM",20.4%
same,"viability, T/C","second compound 0.00949 µM, first compound 0.01 µM",17.9%
same,"viability, T/C",[9],17%
same,"viability, T/C",[10],14.1%
same,"viability, T/C",[11],14.5%
same,"viability, T/C",[12],17.1%
same,"viability, T/C","second compound 0.03 µM, first compound 0.00316 µM",19.9%
same,"viability, T/C","second compound 0.03 µM, first compound 0.01 µM",18.6%
same,"viability, T/C",[13],16.8%
same,"viability, T/C",[14],14.4%
same,"viability, T/C",[15],15.1%
same,"viability, T/C",[16],15.6%
same,"viability, T/C","second compound 0.0949 µM, first compound 0.00316 µM",20%
same,"viability, T/C","second compound 0.0949 µM, first compound 0.01 µM",17.4%
same,"viability, T/C",[17],19.2%
same,"viability, T/C",[18],16.9%
same,"viability, T/C",[19],16.1%
same,"viability, T/C",[20],18.7%
same,"viability, T/C","second compound 0.3 µM, first compound 0.00316 µM",19.3%
same,"viability, T/C","second compound 0.3 µM, first compound 0.01 µM",20.9%
same,"viability, T/C",[21],19.1%
same,"viability, T/C",[22],16.5%
same,"viability, T/C",[23],16.5%
same,"viability, T/C",[24],20.8%
CC(C)NCC(C(=O)N1CCN(c2ncnc3c2C(C)CC3O)CC1)c1ccc(Cl)cc1 (centres undefined) + CCn1c(-c2cc(N3CCN(C)CC3)cnc2C(C)OC)c2c3cc(ccc31)-c1csc(n1)CC(NC(=O)C1CC1C)C(=O)N1CCCC(N1)C(=O)OCC(C)(C)C2,IC50,second compound 0.000949 µM,< 31.6 nM
same,IC50,second compound 0.003 µM,< 31.6 nM
same,IC50,second compound 0.00949 µM,< 31.6 nM
same,IC50,second compound 0.03 µM,< 31.6 nM
same,IC50,second compound 0.0949 µM,< 31.6 nM
same,IC50,second compound 0.3 µM,< 31.6 nM
same,"viability, T/C",[1],29.7%
same,"viability, T/C",[2],25.9%
same,"viability, T/C",[3],20.5%
same,"viability, T/C",[4],21.1%
same,"viability, T/C","second compound 0.000949 µM, first compound 3.16 µM",27.7%
same,"viability, T/C","second compound 0.000949 µM, first compound 10 µM",33.9%
same,"viability, T/C",[5],25.2%
same,"viability, T/C",[6],20.6%
same,"viability, T/C",[7],17.4%
same,"viability, T/C",[8],13.4%
same,"viability, T/C","second compound 0.003 µM, first compound 3.16 µM",17.8%
same,"viability, T/C","second compound 0.003 µM, first compound 10 µM",17.7%
same,"viability, T/C",[9],20.4%
same,"viability, T/C",[10],15.2%
same,"viability, T/C",[11],14.7%
same,"viability, T/C",[12],11.6%
same,"viability, T/C","second compound 0.00949 µM, first compound 3.16 µM",14.1%
same,"viability, T/C","second compound 0.00949 µM, first compound 10 µM",15.7%
same,"viability, T/C",[13],20.1%
same,"viability, T/C",[14],15.8%
same,"viability, T/C",[15],14.9%
same,"viability, T/C",[16],11.9%
same,"viability, T/C","second compound 0.03 µM, first compound 3.16 µM",11.9%
same,"viability, T/C","second compound 0.03 µM, first compound 10 µM",13.8%
same,"viability, T/C",[17],16.5%
same,"viability, T/C",[18],17.4%
same,"viability, T/C",[19],13.1%
same,"viability, T/C",[20],11.7%
same,"viability, T/C","second compound 0.0949 µM, first compound 3.16 µM",12.4%
same,"viability, T/C","second compound 0.0949 µM, first compound 10 µM",13.8%
same,"viability, T/C",[21],18.8%
same,"viability, T/C",[22],19.6%
same,"viability, T/C",[23],14.2%
same,"viability, T/C",[24],11.5%
same,"viability, T/C","second compound 0.3 µM, first compound 3.16 µM",12.9%
same,"viability, T/C","second compound 0.3 µM, first compound 10 µM",13.8%
